Data on one substance can be found in publication PMC6172217, “A handheld platform for target protein detection and quantification using disposable nanopore strips” (Scientific Reports, 2018).

The subject of this assay is 309 bp/bisPNA-affibody. Kind of assay: EMSA, TNFα complex formation. It is filed as binding.

As to TNFα, where the note is “309 bp/PNA-affibody + TNFα, 1 h room temperature, pH 7.4”, the EMSA complex formation result is recorded as “full DNA/PNA-affibody/TNFα complex formation”. Also, the “EMSA saturation, ratio TNFα to scaffold/bisPNA-affibody” value (band intensity appears to saturate) is given as at least 3 X.
